The target in experiment [1] is XIAP BIR1/2 (Homo sapiens (Human), UniProt P98170). The experiment can be described thus: XIAP BIR1/2 Ki. It is filed as binding.
Experiment [2] deals with ML-IAP (Homo sapiens (Human), UniProt Q96CA5). The experiment can be described thus: ML-IAP Ki. The class given is binding.
The target of experiment [3] is XIAP BIR3 (Homo sapiens (Human), UniProt P98170). The experiment can be described thus: XIAP BIR3 Ki. The class given is binding.
Experiment [4] concerns HEK 293T cells infected with HIV-VSVg. The class given is cell-based.
Experiment [5] concerns latently infected JLat 10.6 cells. The note with it: for Reactivation of latent HIV (GFP reporter expression): single agent, 24 hours; for Activation of HIV transcription, combination versus components alone: in combination with Compound 35, 24 hours.
The test system of experiment [6] is Latently infected Jurkat JLat 10.6 cells. The note with it: HDAC inhibitor in combination with Compound 35, 36 hours, normalized against background of HDAC inhibitor alone.

Some results are limits rather than exact numbers.

Sequence of ML-IAP (Q96CA5 whole entry): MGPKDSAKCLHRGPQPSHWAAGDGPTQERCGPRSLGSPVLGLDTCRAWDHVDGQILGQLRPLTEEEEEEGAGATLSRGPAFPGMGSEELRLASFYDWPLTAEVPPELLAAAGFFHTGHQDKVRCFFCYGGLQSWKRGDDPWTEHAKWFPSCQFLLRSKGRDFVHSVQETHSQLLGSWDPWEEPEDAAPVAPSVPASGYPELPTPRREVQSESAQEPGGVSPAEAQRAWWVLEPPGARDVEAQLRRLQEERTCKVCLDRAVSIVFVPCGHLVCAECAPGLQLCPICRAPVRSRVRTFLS
Sequence of XIAP BIR3 (P98170 241-356): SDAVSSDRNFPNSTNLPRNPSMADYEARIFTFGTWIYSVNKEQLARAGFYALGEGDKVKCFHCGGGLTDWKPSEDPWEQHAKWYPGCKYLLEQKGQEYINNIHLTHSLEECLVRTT
Sequence of XIAP BIR1/2 (P98170 1-240): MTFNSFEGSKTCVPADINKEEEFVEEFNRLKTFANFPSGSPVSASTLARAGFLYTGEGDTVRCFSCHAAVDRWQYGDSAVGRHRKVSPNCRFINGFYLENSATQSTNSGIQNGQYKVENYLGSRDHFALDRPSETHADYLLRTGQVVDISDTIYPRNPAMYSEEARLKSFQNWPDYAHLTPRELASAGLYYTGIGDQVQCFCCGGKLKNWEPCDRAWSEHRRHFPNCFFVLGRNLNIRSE

For the molecule `CN[C@@H](C)C(=O)N[C@@H]1C(=O)N2C(C(=O)NC3CCCc4ccccc43)CC[C@@H]2O[C@@H]1C` (stereo partly shown) [Compound 10], the Ki (usually a dissociation constant, usually derived from enzyme kinetics or from competition with a known ligand) in experiment [1] (Table B-1) was greater than 50 µM; in experiment [2] (Table B-1), no more than 25 µM; in experiment [3] (Table B-1), no more than 25 µM.
Take `CN[C@@H](C)C(=O)N[C@H]1CCO[C@H]2CCC(C(=O)N[C@@H]3CCCc4ccccc43)N2C1=O` (stereo partly shown) [Compound 12]: the Ki in experiment [1] (Table B-1) is greater than 50 µM; in experiment [2] (Table B-1) it was no more than 25 µM; in experiment [3] (Table B-1), no more than 25 µM.
As to `CN[C@@H](C)C(=O)N[C@H]1CCO[C@H]2CCC(C(=O)NC(c3ccccc3)c3ccccc3)N2C1=O` (stereo partly shown) [Compound 14], the values for the Ki in experiment [1] (Table B-1), in experiment [2] (Table B-1) and in experiment [3] (Table B-1) were greater than 50 µM, no more than 25 µM and no more than 25 µM, respectively.
In the case of `CN[C@@H](C)C(=O)N[C@H]1CCO[C@H]2c3ccccc3C(C(=O)N[C@@H]3CCCc4ccccc43)N2C1=O` (stereo partly shown) [Compound 17a], the Ki in experiment [1] (Table 2-2) is greater than 50 µM; in experiment [2] (Table 2-2), no more than 25 µM; in experiment [3] (Table 2-2) it was no more than 25 µM.
Regarding `CN[C@@H](C)C(=O)N[C@H]1CCO[C@H]2CC(C)(C)C(C(=O)N[C@@H]3CCCc4ccccc43)N2C1=O` (stereo partly shown) [Compound 17b], the Ki in experiment [1] (Table 2-2), in experiment [2] (Table 2-2) and in experiment [3] (Table 2-2) was no more than 25 µM throughout.
On to `CN[C@@H](C)C(=O)N[C@H]1CCS[C@H]2CCC(C(=O)N[C@@H]3CCCc4ccccc43)N2C1=O` (stereo partly shown) [Compound 24], for which the inhibition constant (Ki) was greater than 50 µM in experiment [1] (Table B-1), no more than 25 µM in experiment [2] (Table B-1) and no more than 25 µM in experiment [3] (Table B-1).
Regarding `CN[C@@H](C)C(=O)N[C@H]1CCO[C@H]2CC(C)(C)[C@@H](C(=O)N[C@@H]3CCCc4ccccc43)N2C1=O` [Compound 26], the Ki in experiment [1] (Table B-1), in experiment [2] (Table B-1) and in experiment [3] (Table B-1) was no more than 25 µM throughout.
On to `CN[C@@H](C)C(=O)N[C@H]1CCO[C@H]2c3ccccc3C(C(=O)N[C@@H]3CCCc4ccccc43)N2C1=O` (stereo partly shown) [Compound 27], for which the Ki in experiment [1] (Table B-1) was greater than 50 µM; in experiment [2] (Table B-1), no more than 25 µM; in experiment [3] (Table B-1), no more than 25 µM.
Regarding `CN[C@@H](C)C(=O)N[C@H]1CCO[C@H]2CC[C@@H](C(=O)N[C@@H]3CCOc4ccccc43)N2C1=O` [Compound 32], the Ki in experiment [1] (Table B-1) is greater than 50 µM; in experiment [2] (Table B-1) it was no more than 25 µM; in experiment [3] (Table B-1), no more than 25 µM.
With `CN[C@@H](C)C(=O)N[C@H]1CCO[C@H]2CC[C@@H](C(=O)N[C@@H]3CCCc4ccccc43)N2C1=O` [Compound 33], the Ki was greater than 50 µM in experiment [1] (Table B-1), no more than 25 µM in experiment [2] (Table B-1) and no more than 25 µM in experiment [3] (Table B-1).
Take `CN[C@@H](C)C(=O)N[C@H]1CCS[C@H]2CC[C@@H](C(=O)N[C@@H]3CCCc4ccccc43)N2C1=O` [Compound 34]: the figures for the Ki in experiment [1] (Table B-1), in experiment [2] (Table B-1) and in experiment [3] (Table B-1) were greater than 50 µM, no more than 25 µM and no more than 25 µM, respectively.
Take `CN[C@@H](C)C(=O)N[C@H]1CCS[C@H]2CC(C)(C)C(C(=O)N[C@@H]3CCCc4ccccc43)N2C1=O` (stereo partly shown) [Compound 35]: in experiment [4], the “Viral gene transcription as measured by luciferase expression” value was “enhancement of viral gene transcription, as measured by luciferase expression, was proportional to the loss of BIRC2/cIAP1 protein”. The Ki in experiment [1] (Table B-1), in experiment [2] (Table B-1) and in experiment [3] (Table B-1) was no more than 25 µM each time. Moreover, the “Reactivation of latent HIV (GFP reporter expression)” value in experiment [5] was “caused reactivation of HIV”.
On to `CN[C@@H](C)C(=O)N[C@H]1CCS[C@H]2CC[C@H](C(=O)N[C@@H]3CCCc4ccccc43)N2C1=O` [Compound 36], for which the Ki in experiment [1] (Table B-1) was greater than 50 µM; in experiment [2] (Table B-1) it was no more than 25 µM; in experiment [3] (Table B-1) it was no more than 25 µM.
Turning to `CN[C@@H](C)C(=O)N[C@H]1CCO[C@H]2CC3(CC=CC3)C(C(=O)N[C@@H]3CCCc4ccccc43)N2C1=O` (stereo partly shown) [Compound 42], the Ki in experiment [1] (Table B-1), in experiment [2] (Table B-1) and in experiment [3] (Table B-1) was no more than 25 µM in each case.
On to `CN[C@@H](C)C(=O)N[C@H]1CC(=O)N[C@H]2CC(C)(C)C(C(=O)N[C@@H]3CCCc4ccccc43)N2C1=O` (stereo partly shown) [Compound 46], for which the Ki was greater than 50 µM in experiment [1] (Table B-1), no more than 25 µM in experiment [2] (Table B-1) and no more than 25 µM in experiment [3] (Table B-1).
For `CC(=O)NCCCCCCNC(C)=O` [HMBA, hexamethylbisacetamide], the “Activation of HIV transcription, combination versus components alone” value in experiment [5] is “greater effect than treatment with any of the components alone”.
On the same count and under the same terms, then `Cc1[nH]c2ccccc2c1CCNCc1ccc(/C=C/C(=O)NO)cc1` [Panobinostat, panobinostat], with “greater effect than treatment with any of the components alone”.
As to `CC[C@H](NC(=O)[C@H](C)NC)C(=O)N1C[C@@H](O)C[C@H]1Cc1c(-c2[nH]c3cc(F)ccc3c2C[C@@H]2C[C@H](O)CN2C(=O)[C@H](CC)NC(=O)[C@H](C)NC)[nH]c2cc(F)ccc12` [TL32711], in experiment [5], the “Reactivation of latent HIV (GFP reporter expression)” value is given as “Reactivation of latent HIV in JLat 10.6 cells was achieved”.
`O=C(CCCCCCC(=O)Nc1ccccc1)NO` [Vorinostat, vorinostat]: the “Group: increase of GFP+ cells” value in experiment [6] is reported as “A (A 0-25%)”. In addition, the “Activation of HIV transcription, combination versus components alone” value in experiment [5] is given as “greater effect than treatment with any of the components alone”.

The values are drawn from patent publication US10300074B2, “Use of inhibitor of apoptosis protein (IAP) antagonists in HIV therapy” (Sanford-Burnham Medical Research Institute, priority 2014, dated 2019).
